According to publication PMC8997832, “Genetic Engineering Production of Ethyl Carbamate Hydrolase and Its Application in Degrading Ethyl Carbamate in Chinese Liquor” (Foods, 2022):

Test system: T1, ethyl carbamate hydrolase (ECH; AcECH)
T1 construct: codon-optimized synthetic gene in pET24b (NdeI/XhoI), C-terminal His-tag kept, E. coli BL21(DE3), Ni-NTA purified; about 33 kDa by SDS-PAGE
Assay: Berthelot indophenol ammonia assay, […] nm; Lineweaver-Burk
Format: biochemical, Acinetobacter calcoaceticus
Details: free enzyme; 5-30 mM EC; standard assay 70 °C, pH 7.0 (not restated for kinetics)

In the case of `CCOC(N)=O` [EC, ethyl carbamate], the Km is reported as 9.38 mM.
